Assay results reported in patent US12084481B2 (priority 2016, dated 2024).

Target: hHv1 (Homo sapiens, UniProt Q96D96)
Type: cell-based
Conditions: not given

hHv1, sequence (Q96D96 whole entry): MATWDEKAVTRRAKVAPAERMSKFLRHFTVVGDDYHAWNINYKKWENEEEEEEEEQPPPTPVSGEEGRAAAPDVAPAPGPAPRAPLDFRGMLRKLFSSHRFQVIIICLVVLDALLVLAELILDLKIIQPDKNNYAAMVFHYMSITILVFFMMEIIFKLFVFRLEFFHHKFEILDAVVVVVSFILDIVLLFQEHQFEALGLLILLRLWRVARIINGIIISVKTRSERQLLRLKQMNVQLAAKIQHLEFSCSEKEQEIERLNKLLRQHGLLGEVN

Row | Molecule | Activator/Inhibitor
1 | GCKGFGDSCADSDDCCETFHCKWVFFTSKFMCRRVWGKD [A6] | ACTIVATOR
2 | GCLGDKCADSDDCCETFHCKWVFFTSKFMCRRVWGKD [B1] | ACTIVATOR

Tested on: human blood cells
Type: cell-based
Conditions: 100 μM

Row | Molecule | production of ROS
3 | [Zn] [zinc] | blocks ROS production to background (control) levels

Target: Hv1 channels (Homo sapiens, UniProt Q96D96)
Conditions: cited from earlier work

Hv1 channels, sequence (Q96D96 whole entry): as the sequence (Q96D96 whole entry) above

Row | Molecule | effect on Hv1 proton currents | concentrations inhibiting Hv1
4 | CCCCC/C=C\C/C=C\C/C=C\C/C=C\CCCC(=O)O [arachidonic acid] | enhance Hv1 proton currents | –
5 | CCCCCCCC/C=C\CCCCCCCC(=O)O [oleic acid] | enhance Hv1 proton currents | –
6 | ECRYLFGGCKTTSDCCKHLGCKFRDKYCAWDFTFS [hanatoxin] | – | low micromolar

Tested on: H^+ currents
Conditions: cited from earlier work

Row | Molecule | effect on H^+ currents
7 | Nc1ccncc1 [4-aminopyridine] | block H^+ currents
8 | COc1ccc(CCN(C)CCCC(C#N)(c2cc(OC)c(OC)c(OC)c2)C(C)C)cc1OC (stereo not shown) [D600] | block H^+ currents
9 | O=C(O[C@@H]1Cc2c(O)cc(O)cc2O[C@@H]1c1cc(O)c(O)c(O)c1)c1cc(O)c(O)c(O)c1 [EGCG] | block H^+ currents
10 | N=C(N)NC(=O)c1nc(Cl)c(N)nc1N [amiloride] | block H^+ currents
11 | CN(C)CCC=C1c2ccccc2CCc2ccccc21 [amitryptiline] | block H^+ currents
12 | CNCCCN1c2ccccc2CCc2ccccc21 [desipramine] | block H^+ currents
13 | COc1ccc2c(c1)[C@]13CCCC[C@@H]1[C@H](C2)N(C)CC3 [dextromethorphan] | block H^+ currents
14 | CNCCC(Oc1ccc(C(F)(F)F)cc1)c1ccccc1 (stereo not shown) [fluoxetine] | block H^+ currents
15 | CN(C)CCCN1c2ccccc2CCc2ccccc21 [imipramine] | block H^+ currents
16 | COc1ccc(CCN(C)CCCC(C#N)(c2ccc(OC)c(OC)c2)C(C)C)cc1OC (stereo not shown) [verapamil] | block H^+ currents
